Test results as given in US12663425B2, “Delta-2-tubulin as a biomarker and therapeutic target for peripheral neuropathy” (THE TRUSTEES OF COLUMBIA UNIVERSITY IN THE CITY OF NEW YORK, priority 2017, dated 2026).

Tests used:
[1] = Dynamic test, plantar test and electrophysiological tests in rats chronically treated with bortezomib; assay type: in vivo, female Wistar rats; settings: chronic: 0.2 mg/kg, three times per week, 8 weeks
Experimental: FIG. 1A-1D. Chronic doses of bortezomib affect animal behavior and nerve function. (A) Hind-paw withdrawal response to mechanical stimulus (10-50 g). (B) Plantar withdrawal latency response to heat source (infra-red light). Dynamic and plantar tests were performed before (baseline value), after 4-week and at the end point of treatment with Bortezomib. Data are expressed as mean values±SD, n animals=12. (C, D) Caudal and digital nerve conduction velocity (NCV) and amplitude measured in rats treated chronically with Bortezomib. n=8-10 per group; *p<0.05 compared to control.
To determine the effects of bortezomib on the post-translation modifications of tubulin, female Wistar rats were treated with single or multiple administrations pf bortezomib (5 rats for each treatment). Acute treatment included a single intravenous administration of bortezomib at a concentration of 0.2 mg/kg. Chronically treated rats were treated with bortezomib for a total of 8 weeks, with administration of bortezomib three times per week at a concentration of 0.2 mg/kg. […] Certain post-translation modifications of α-tubulin, e.g., acetylation, are reduced in dorsal root ganglions neurons (DRGs) and sural nerves (SNs) from rats chronically treated with bortezomib (FIG. 2) and in rats acutely treated with bortezomib (FIG. 3).

[2] = test system: delta-2-tubulin; assay: Quantitative immunofluorescence of tubulin post-translational modifications in DRG and sural nerve of treated rats; assay type: in vivo, female Wistar rats
Experimental: FIG. 2. Immunofluorescence analysis of selected α-tubulin post-translational modifications in neuronal tissue from chronically treated rats. Relative tubulin post-translational modifications levels measured by quantitative immunofluorescence in randomly selected dorsal root ganglion cell bodies (DRG) and sural nerve (SN) from rats (4 per group) treated with chronic (0.2 mg/kg, 3× week for 8 weeks) doses of Bortezomib. Data are mean values±SEM. ****, p≤0.0001; ***, p≤0.001; **, p≤0.01; *, p≤0.05 by ANOVA (in red,) or unpaired, two-tailed t-test (in black).
FIG. 3A-3C. […] (A) Representative immunofluorescence staining of DRG isolated from rats acutely treated with Bortezomib. (B) Relative tubulin post-translational modifications levels measured by quantitative immunofluorescence in randomly selected DRG and SN from rats (4 per group) treated with acute (i.v. 0.2 mg/kg; 24 hr) doses of Bortezomib. Data are mean values±SEM, ****, p≤0.0001; ***, p≤0.001; **, p≤0.01; *, p≤0.05 by ANOVA (A in red,) or unpaired, two-tailed t-test (A in black). (C) Schematic of the enzymes involved in D2 generation.
FIG. 13A-13E. […] (A) Immunofluorescence staining of Peripherin (smaller unmyelinated C-fibers) or (B) NF200 (large myelinated A-β fibers)(C) TrkC (proprioceptive)(D) TrkA (nociceptive) in DRG L4-L5 dissected from rats treated with Bortezomib for 24 hr. (E) Correlation between peripherin, NF200, TrkC, TrkA and D2 intensity values in randomly selected DRG cell bodies was calculated by using Pearson coefficient (r). Scale bar, 50 μm.
To determine the effects of bortezomib on the post-translation modifications of tubulin, female Wistar rats were treated with single or multiple administrations pf bortezomib (5 rats for each treatment). Acute treatment included a single intravenous administration of bortezomib at a concentration of 0.2 mg/kg. Chronically treated rats were treated with bortezomib for a total of 8 weeks, with administration of bortezomib three times per week at a concentration of 0.2 mg/kg.
To determine the effect of bortezomib on tubulin expression, DRGs were analyzed for delta-2-tubulin expression. […] Further analysis of other unrelated chemotherapy-induced peripheral neuropathy (CIPN) drugs was performed to determine their effect on delta-2-tubulin expression levels. […] Additional experiments were performed to determine whether DRGs with different sensory modalities and diameters are preferentially affected by bortezomib treatment.

[3] = test system: delta-2-tubulin; assay: Delta-2-tubulin in sural nerve biopsy of CIPN patients (immunofluorescence, immunoblot); assay type: in vivo; settings: CIPN patients (FIG. 5)
Excerpt: FIG. 5A-5C. Bortezomib induces delta-2-tubulin in CIPN patients. (A) Representative immunofluorescence staining of SN isolated from a patient affected by CIPN. (B) Ratio analysis of D2/βIII-tubulin levels measured by immunofluorescence of fixed tissue from one SN biopsy. Data are mean values from 3 sections±SEM, ****, p<0.0001 by t-test (unpaired, two-tailed). (C) Immunoblot of D2 levels in whole cell lysates from one SN biopsy. Tyr, tyrosinated tubulin.
(§1) Peripheral neurons from patients suffering from CIPN were analyzed for delta-2-tubulin expression. […] In addition.

[4] = test system: delta-2-tubulin; assay: Delta-2-tubulin levels in cultured neurons (western blot, immunofluorescence); assay type: cell-based; settings: for delta-2-tubulin expression: cultured hippocampal and DRG neurons (FIG. 6)
Experimental: FIG. 6. Bortezomib induces delta-2-tubulin in DRG neurons as shown by western blot analysis of delta-2-tubulin levels from whole cell lysates of adult DRG neurons treated with Bortezomib and immunofluorescence of delta-2-tubulin in cultured DRG neurons treated with Bortezomib.
(§2) FIG. 7A-7D. Bortezomib induces delta-2-tubulin at the onset of axonal degeneration. (A) Representative immunofluorescence of D2 and βIII-tub staining in DRG neurons treated with 100 nM of Bortezomib for the indicated times. Bar, 50 μm. (B) Ratio analysis of D2/βIII-tubulin levels measured by immunofluorescence of fixed cells treated as in A. **, p≤0.01, ****, p≤0.0001 by t-test (unpaired, two-tailed). […] Data are mean values±SEM from 3 experiments. (D) Number of retraction bulbs per field in DRG neurons treated with 100 nM of Bortezomib for the indicated times. **, p≤0.01.
FIG. 12. (A) Immunoblot of D2 levels from whole cell lysates of adult DRG neurons (14 DIV) treated with increasing doses of Bortezomib for the indicated times. (B) IB of D2 levels in the MT pellet (P) and soluble tubulin (S) fractions isolated from adult DRG neurons (8 DIV) treated with 100 nM of Bortezomib for the indicated times.
as §1

[5] = test system: DRG neurons; assay: Axonal degeneration (degeneration index) in cultured DRG neurons; assay type: cell-based; settings: DRG neurons treated with 100 nM for the indicated times (FIG. 7C)
Experimental: as §2
FIG. 9A-9E. Delta-2-tubulin accumulation is sufficient to drive axonopathy. (A) Schematic of the enzymes involved in D2 generation. (B) Immunoblot of tubulin tyrosine ligase (TTL), D2 and tyrosinated (TYR) tubulin levels in adult DRG neurons (14 DIV) silenced of TTL expression at 7 DIV. (C) Representative immunofluorescence images of DRG neurons as in B. (D) Axonal degeneration and number of retraction bulbs per field in DRG neurons treated as in B. (E) Axonal degeneration in DRG neurons that overexpress D2-(PVLX-EGFP-D2Tub) or WT-tubulin (PVLX-EGFP-Tub). Data are mean values±SEM from 3 experiments. ***, p≤0.001; **, p≤0.01, *p≤0.05 by t-test (unpaired, two-tailed). Bar, […].
FIG. 14A-14D. […]
Peripheral neurons from patients suffering from CIPN were analyzed for delta-2-tubulin expression. […]

[6] = test system: DRG neurons; assay: EGFP-EB3 analysis of microtubule dynamics in DRG neurons; assay type: cell-based; settings: DRG neurons 7 DIV, 100 nM, prior to delta-2-tubulin induction (FIG. 8)
Experimental: FIG. 8. Bortezomib induces MT stability without affecting MT dynamics prior to D2 induction. EGFP-EB3 time course analysis of MT dynamics parameters in DRG neurons (7 days in vitro (DIV)) treated with 100 nM Bortezomib for the indicated times. Data were pulled from up to 300 comets and 12-15 neurites for each group and analyzed by one-way ANOVA, multiple comparison. (NS, non-significant).
(§3) Microtubule dynamics were analyzed in DRG neurons following bortezomib treatment. […] TTL binds αβ-tubulin dimer and catalyzes the post-translational addition of a tyrosine to the C-terminal end of detyrosinated α-tubulin. Song et al., J. of Bio. Chem. 290(23):14765-14775 (2015).

[7] = test system: tubulin tyrosine ligase (TTL); assay: Immunoblot of tubulin tyrosine ligase (TTL) and D2 levels in adult DRG neurons; assay type: cell-based; settings: adult DRG neurons 14 DIV, 100 nM (FIG. 11)
Experimental: FIG. 11. Immunoblot of tubulin tyrosine ligase (TTL) and D2 levels in adult DRG neurons (14 DIV) treated with 100 nM Bortezomib.
as §3

[8] = test system: DRG neurons; assay: Mitochondrial motility in DRG neurons (mito-DsRed kymographs); assay type: cell-based; settings: 100 nM for 24 hr (FIG. 15D)
Experimental: FIG. 15A-15F. D2 accumulation is necessary and sufficient to affect mitochondria motility. (A) Representative kymographs of mitochondrial motility in DRG neurons (7 DIV) infected for 4 days with PVLX-EGFP-D2- or WT-Tubulin lentivirus prior to 72 hr infection with mito-DsRed lentivirus. (B) Quantification of the percentage of moving mitochondria as in A. Videos (10 s/frame for 30 min). (C, F) Percentage of different mitochondria movement states, Dynamic Pause (DP), Stationary (STA), Anterograde Running (AR), Retrograde Running (RR) (1 s/frame for 3 min, C), (10 s/frame for 30 min, F). (D) Representative kymographs of mitochondrial motility in DRG neurons (7 DIV) infected for 4 days with ShCCP1 or shControl lentivirus prior 72 hr infection with mito-DsRed lentivirus followed by Bortezomib treatment (100 nM for 24 hr). (E) Quantification of the percentage of moving mitochondria as in D. Videos (10 s/frame for 30 min). […]
To determine the effect bortezomib and delta-2 tubulin accumulation have on mitochondrial motility, DRG neurons were transduced with lentivirus to express wild-type tubulin or delta-2 tubulin. […] Expression of delta-2 tubulin affected every state of mitochondrial movement analyzed except for the stationary state (STA) (FIG. 15C). The effect of CCP1 knockdown on mitochondrial movement in the presence of bortezomib was also analyzed.

axonopathy [5] | SMILES | animal behavior and nerve function (dynamic test, plantar test, electrophysiological tests) [1] | delta-2-tubulin in proprioceptive and nociceptive DRG neurons ([2]; DRG L4-L5 of rats treated for 24 hr (FIG. 13)) | delta-2-tubulin in DRG cell bodies, compared to βIII-tubulin and control ([2]; acute treatment, single i.v. 0.2 mg/kg, 24 hr (FIG. 3)) | delta-2-tubulin in DRG cell bodies, compared to βIII-tubulin and control ([2]; chronic treatment, 0.2 mg/kg 3x week for 8 weeks (FIG. 2)) | post-translation modifications of α-tubulin, e.g., acetylation, in DRGs and SNs ([2]; rats acutely treated, single i.v. 0.2 mg/kg, 24 hr (FIG. 3)) | post-translation modifications of α-tubulin, e.g., acetylation, in DRGs and SNs ([2]; rats chronically treated, 0.2 mg/kg 3x week for 8 weeks (FIG. 2)) | delta-2-tubulin expression in peripheral neurons, e.g., sural nerve [3] | delta-2-tubulin induction relative to axonal degeneration (degeneration index) ([4]; DRG neurons, 100 nM, time course (FIG. 7)) | delta-2-tubulin expression [4] | microtubule dynamics (rescue/nucleation frequency, catastrophe frequency, comet density, growth rate) [6] | TTL expression, western blot [7] | delta-2-tubulin, western blot [7] | movement of mitochondria [8] | delta-2-tubulin in DRG neurons compared to control ([2]; unrelated CIPN drugs, acute (FIG. 4))
Time dependent increase of axonopathy | CC(C)C[C@H](NC(=O)[C@H](Cc1ccccc1)NC(=O)c1cnccn1)B(O)O [bortezomib] | affected animal behavior and nerve function | accumulate delta-2-tubulin | increased | increased | reduced | reduced | induced delta-2-tubulin expression | induced delta-2-tubulin at the onset of axonal degeneration | increase in delta-2-tubulin expression | does not affect microtubule dynamics | reduction of TTL expression | accumulation of delta-2-tubulin | greatly affected the movement of mitochondria | –
– | CC(=O)O[C@H]1C(=O)[C@@]2(C)[C@H]([C@H](OC(=O)c3ccccc3)[C@]3(O)C[C@H](OC(=O)[C@H](O)[C@@H](NC(=O)c4ccccc4)c4ccccc4)C(C)=C1C3(C)C)[C@]1(OC(C)=O)CO[C@@H]1C[C@@H]2O [paclitaxel] | – | – | – | – | – | – | – | – | increase in delta-2-tubulin expression | – | – | – | – | acutely accumulated delta-2-tubulin
